Measured values as given in patent publication US9540350B2, “1-substituted, 4-(substituted phenoxymethyl)-1,2,3-triazole compounds with antifungal properties and methods for preparation thereof” (FDC LIMITED, priority 2013, dated 2017).
In brackets after ≈: the same amount, converted by molar mass. Like-named read-outs stand apart in the source and are kept apart here.

Legend:
C. albicans ATCC 24433 = test: Antifungal susceptibility, broth dilution MIC (CLSI M27-A2); type: cell-based; conditions: Candida albicans, read-out: Activity against organisms (MIC50) Ca01
Protocol: (§1) The compounds of Formula 1 were tested for antifungal activity against Candida albicans, C. glabrata, C. krusei, C. tropicalis, Cryptococcus neoformans, Aspergillus fumigatus, A. niger and Fusarium proliferatum. In vitro evaluation of antifungal activity was performed by determining the minimum inhibitory concentration (MIC) following standard methods (CLSI: Reference method for broth dilution antifungal susceptibility testing of yeasts; Approved standard, second edition M27-A2, 2002; CLSI: Reference method for broth dilution antifungal susceptibility testing of filamentous fungi; Approved standard M38-A, 2002). Anti-fungal susceptibility testing of these anti-fungal compounds was done by broth dilution method using RPMI 1640 medium with MOPS buffer. Known anti-fungal agent fluconazole was used as positive control. End points were determined after 48 hours visually and by using spectrophotometer wherever necessary. Different dilutions were tried and various sets of experiments performed. The activity parameters are enumerated in Table 4.

C. glabrata ATCC 90030 = test: as above; type: cell-based, Candida glabrata; conditions: Nakaseomyces glabratus, read-out: Activity against organisms (MIC50) Cg01
Protocol: as §1

C. krusei ATCC 6258 = test: as above; type: cell-based, Candida krusei; conditions: Pichia kudriavzevii, read-out: Activity against organisms (MIC50) Ck01
Protocol: as §1

C. tropicalis ATCC 750 = test: as above; type: cell-based, Candida tropicalis; conditions: Candida tropicalis, read-out: Activity against organisms (MIC50) Ct01
Protocol: as §1

C. neoformans ATCC 34664 = test: as above; type: cell-based, Cryptococcus neoformans; conditions: Cryptococcus neoformans, read-out: Activity against organisms (MIC50) Cn01
Protocol: as §1

A. fumigatus ATCC 46645 = test: Antifungal susceptibility, broth dilution MIC (CLSI M38-A); type: cell-based; conditions: Aspergillus fumigatus, read-out: Activity against organisms (MIC50) Afm01
Protocol: as §1

A. niger ATCC 16404 = test: as above; type: cell-based; conditions: Aspergillus niger, read-out: Activity against organisms (MIC50) An01
Protocol: as §1

[1] = system: F. proliferatum ATCC 10052; test: as above; type: cell-based; conditions: Fusarium proliferatum, read-out: Activity against organisms (MIC50) Fp01
Protocol: as §1

[2] = ATCC24433, C. albicans ATCC 24433, broth dilution, RPMI 1640 with MOPS, 48 hours
[3] = ATCC90030, C. glabrata ATCC 90030, broth dilution, RPMI 1640 with MOPS, 48 hours
[4] = ATCC6258, C. krusei ATCC 6258, broth dilution, RPMI 1640 with MOPS, 48 hours
[5] = ATCC750, C. tropicalis ATCC 750, broth dilution, RPMI 1640 with MOPS, 48 hours
[6] = ATCC34664, C. neoformans ATCC 34664, broth dilution, RPMI 1640 with MOPS, 48 hours
[7] = ATCC46645, A. fumigatus ATCC 46645, broth dilution, RPMI 1640 with MOPS, 48 hours
[8] = ATCC16404, A. niger ATCC 16404, broth dilution, RPMI 1640 with MOPS, 48 hours
[9] = ATCC10052, F. proliferatum ATCC 10052, broth dilution, RPMI 1640 with MOPS, 48 hours

Compound | MIC50 (C. albicans ATCC 24433; [2]) [µg/mL] | MIC50 (C. glabrata ATCC 90030; [3]) [µg/mL] | MIC50 (C. krusei ATCC 6258; [4]) [µg/mL] | MIC50 (C. tropicalis ATCC 750; [5]) [µg/mL] | MIC50 (C. neoformans ATCC 34664; [6]) [µg/mL] | MIC50 (A. fumigatus ATCC 46645; [7]) [µg/mL] | MIC50 (A. niger ATCC 16404; [8]) [µg/mL] | MIC50 [1, 9] [µg/mL] | MIC50 (C. albicans ATCC 24433; ATCC24433, 48 h) [µg/mL] | MIC50 (C. glabrata ATCC 90030; ATCC90030, 48 h) [µg/mL] | MIC50 (C. krusei ATCC 6258; ATCC6258, 48 h) [µg/mL] | MIC50 (C. tropicalis ATCC 750; ATCC750, 48 h) [µg/mL] | MIC50 (C. neoformans ATCC 34664; ATCC34664, 48 h) [µg/mL] | MIC50 (A. fumigatus ATCC 46645; ATCC46645, 48 h) [µg/mL] | MIC50 (A. niger ATCC 16404; ATCC16404, 48 h) [µg/mL] | MIC50 ([1]; ATCC10052, 48 h) [µg/mL]
O=C(/C=C/c1ccccc1)c1ccc(OCc2cn(CC(O)(Cn3cncn3)c3ccc(F)cc3F)nn2)cc1 (stereo not shown) [Compound 1A-1, (E)-1-(4-((1-(2-(2,4-Difluorophenyl)-2-hydroxy-3-(1H-1,2,4-triazol-1-yl)propyl)-1H-1,2,3-triazol-4-yl)methoxy)phenyl)-3-phenylprop-2-en-1-one] | 0.12 (≈ 0.221 µM) | 0.12 (≈ 0.221 µM) | 4 (≈ 7.37 µM) | 1 (≈ 1.84 µM) | 0.5 (≈ 0.922 µM) | > 8 | > 8 | > 8 | – | – | – | – | – | – | – | –
COc1ccc(/C=C/C(=O)c2ccc(OCc3cn(CC(O)(Cn4cncn4)c4ccc(F)cc4F)nn3)cc2)cc1 (stereo not shown) [Compound 1A-2, (E)-1-(4-((1-(2-(2,4-Difluorophenyl)-2-hydroxy-3-(1H-1,2,4-triazol-1-yl)propyl)-1H-1,2,3-triazol-4-yl)methoxy)phenyl)-3-(4-methoxyphenyl)prop-2-en-1-one] | 0.25 (≈ 0.437 µM) | 1 (≈ 1.75 µM) | 8 (≈ 14 µM) | 2 (≈ 3.49 µM) | 1 (≈ 1.75 µM) | > 4 | > 4 | > 4 | – | – | – | – | – | – | – | –
Cc1ccc(/C=C/C(=O)c2ccc(OCc3cn(CC(O)(Cn4cncn4)c4ccc(F)cc4F)nn3)cc2)cc1 (stereo not shown) [Compound 1A-3, (E)-1-(4-((1-(2-(2,4-Difluorophenyl)-2-hydroxy-3-(1H-1,2,4-triazol-1-yl)propyl)-1H-1,2,3-triazol-4-yl)methoxy)phenyl)-3-(4-methylphenyl)prop-2-en-1-one] | 0.25 (≈ 0.449 µM) | 0.25 (≈ 0.449 µM) | 4 (≈ 7.19 µM) | 2 (≈ 3.59 µM) | 0.5 (≈ 0.898 µM) | > 4 | > 4 | > 4 | – | – | – | – | – | – | – | –
O=C(/C=C/c1cccs1)c1ccc(OCc2cn(CC(O)(Cn3cncn3)c3ccc(F)cc3F)nn2)cc1 (stereo not shown) [Compound 1A-4, (E)-1-(4-((1-(2-(2,4-Difluorophenyl)-2-hydroxy-3-(1H-1,2,4-triazol-1-yl)propyl)-1H-1,2,3-triazol-4-yl)methoxy)phenyl)-3-(2-thienyl)prop-2-en-1-one] | 0.12 (≈ 0.219 µM) | 0.5 (≈ 0.911 µM) | 4 (≈ 7.29 µM) | 1 (≈ 1.82 µM) | 0.5 (≈ 0.911 µM) | > 8 | > 8 | > 8 | – | – | – | – | – | – | – | –
COc1ccc(C(=O)/C=C/c2ccc(OCc3cn(CC(O)(Cn4cncn4)c4ccc(F)cc4F)nn3)cc2)cc1 (stereo not shown) [Compound 1B-1] | 0.12 (≈ 0.21 µM) | 0.5 (≈ 0.873 µM) | 4 (≈ 6.99 µM) | 1 (≈ 1.75 µM) | 1 (≈ 1.75 µM) | > 4 | > 4 | > 4 | – | – | – | – | – | – | – | –
O=C(/C=C/c1ccc(OCc2cn(CC(O)(Cn3cncn3)c3ccc(F)cc3F)nn2)cc1)c1ccc(F)cc1 (stereo not shown) [Compound 1B-2, (E)-3-(4-((1-(2-(2,4-Difluorophenyl)-2-hydroxy-3-(1H-1,2,4-triazol-1-yl)propyl)-1H-1,2,3-triazol-4-yl)methoxy)phenyl)-1-(4-fluorophenyl)prop-2-en-1-one] | 0.06 (≈ 0.107 µM) | 0.5 (≈ 0.892 µM) | 4 (≈ 7.14 µM) | 2 (≈ 3.57 µM) | 0.25 (≈ 0.446 µM) | > 4 | > 4 | > 4 | – | – | – | – | – | – | – | –
CC(=O)/C=C/c1ccc(OCc2cn(CC(O)(Cn3cncn3)c3ccc(F)cc3F)nn2)cc1 (stereo not shown) [Compound 1B-3, (E)-4-(4-((1-(2-(2,4-Difluorophenyl)-2-hydroxy-3-(1H-1,2,4-triazol-1-yl)propyl)-1H-1,2,3-triazol-4-yl)methoxy)phenyl)but-3-en-2-one] | – | – | – | – | – | – | – | – | 0.12 (≈ 0.25 µM) | 0.5 (≈ 1.04 µM) | 16 (≈ 33.3 µM) | 1 (≈ 2.08 µM) | 2 (≈ 4.16 µM) | > 64 | > 64 | > 64
O=C(/C=C/c1ccc(OCc2cn(CC(O)(Cn3cncn3)c3ccc(F)cc3F)nn2)cc1)C1CC1 (stereo not shown) [Compound 1B-4, (E)-1-(Cyclopropyl)-3-(4-((1-(2-(2,4-difluorophenyl)-2-hydroxy-3-(1H-1,2,4-triazol-1-yl)propyl)-1H-1,2,3-triazol-4-yl)methoxy)phenyl)prop-2-en-1-one] | 0.12 (≈ 0.237 µM) | 0.5 (≈ 0.987 µM) | > 32 | 2 (≈ 3.95 µM) | 1 (≈ 1.97 µM) | > 32 | > 32 | > 32 | – | – | – | – | – | – | – | –
CCCN1CCN(c2ccc(C(=O)/C=C/c3ccc(OCc4cn(CC(O)(Cn5cncn5)c5ccc(F)cc5F)nn4)cc3)cc2)CC1 (stereo not shown) [Compound 1B-5, (E)-3-(4-((1-(2-(2,4-Difluorophenyl)-2-hydroxy-3-(1H-1,2,4-triazol-1-yl)propyl)-1H-1,2,3-triazol-4-yl)methoxy)phenyl)-1-(4-(4-propylpiperazin-1-yl)phenyl)prop-2-en-1-one] | 0.06 (≈ 0.0897 µM) | 0.5 (≈ 0.748 µM) | > 4 | 0.5 (≈ 0.748 µM) | 1 (≈ 1.5 µM) | > 4 | > 4 | > 4 | – | – | – | – | – | – | – | –
CCCCN1CCN(c2ccc(C(=O)/C=C/c3ccc(OCc4cn(CC(O)(Cn5cncn5)c5ccc(F)cc5F)nn4)cc3)cc2)CC1 (stereo not shown) [Compound 1B-6, (E)-1-(4-(4-n-Butylpiperazin-1-yl)phenyl)-3-(4-((1-(2-(2,4-difluorophehyl)-2-hydroxy-3-(1H-1,2,4-triazol-1-yl)propyl)-1H-1,2,3-triazol-4-yl)methoxy)phenyl)prop-2-en-1-one] | 0.12 (≈ 0.176 µM) | 0.5 (≈ 0.732 µM) | > 4 | 0.5 (≈ 0.732 µM) | 1 (≈ 1.46 µM) | > 4 | > 4 | > 4 | – | – | – | – | – | – | – | –
CCCCCN1CCN(c2ccc(C(=O)/C=C/c3ccc(OCc4cn(CC(O)(Cn5cncn5)c5ccc(F)cc5F)nn4)cc3)cc2)CC1 (stereo not shown) [Compound 1B-7, (E)-3-(4-((1-(2-(2,4-Difluorophenyl)-2-hydroxy-3-(1H-1,2,4-triazol-1-yl)propyl)-1H-1,2,3-triazol-4-yl)methoxy)phenyl)-1-(4-(4-n-pentylpiperazin-1-yl)phenyl)-prop-2-en-1-one] | 0.5 (≈ 0.718 µM) | 0.5 (≈ 0.718 µM) | 8 (≈ 11.5 µM) | 2 (≈ 2.87 µM) | 2 (≈ 2.87 µM) | > 2 | > 2 | > 2 | – | – | – | – | – | – | – | –
